How the values were obtained:
[1] = target: Mitogen-activated protein kinase kinase kinase 20 (Homo sapiens) (UniProt Q9NYL2); assay: Inhibition of human ZAK/MLTK using myelin basic protein as substrate at 1 uM in presence of 32P-ATP by Hotspot assay relative to control; values are per cent of control
[2] = target: Serine/threonine-protein kinase 33 (Homo sapiens) (UniProt Q9BYT3); assay: Inhibition of human STK33 using myelin basic protein as substrate at 1 uM in presence of 32P-ATP by Hotspot assay relative to control; values are per cent of control
[3] = target: T1, NUAK family SNF1-like kinase 1 (Homo sapiens) (UniProt O60285); assay: Inhibition of human ARK5/NUAK1 using KKKVSRSGLYRSPSMPENLNRPR as substrate at 1 uM in presence of 32P-ATP by Hotspot assay relative to control; values are per cent of control
T1 sequence (whole entry): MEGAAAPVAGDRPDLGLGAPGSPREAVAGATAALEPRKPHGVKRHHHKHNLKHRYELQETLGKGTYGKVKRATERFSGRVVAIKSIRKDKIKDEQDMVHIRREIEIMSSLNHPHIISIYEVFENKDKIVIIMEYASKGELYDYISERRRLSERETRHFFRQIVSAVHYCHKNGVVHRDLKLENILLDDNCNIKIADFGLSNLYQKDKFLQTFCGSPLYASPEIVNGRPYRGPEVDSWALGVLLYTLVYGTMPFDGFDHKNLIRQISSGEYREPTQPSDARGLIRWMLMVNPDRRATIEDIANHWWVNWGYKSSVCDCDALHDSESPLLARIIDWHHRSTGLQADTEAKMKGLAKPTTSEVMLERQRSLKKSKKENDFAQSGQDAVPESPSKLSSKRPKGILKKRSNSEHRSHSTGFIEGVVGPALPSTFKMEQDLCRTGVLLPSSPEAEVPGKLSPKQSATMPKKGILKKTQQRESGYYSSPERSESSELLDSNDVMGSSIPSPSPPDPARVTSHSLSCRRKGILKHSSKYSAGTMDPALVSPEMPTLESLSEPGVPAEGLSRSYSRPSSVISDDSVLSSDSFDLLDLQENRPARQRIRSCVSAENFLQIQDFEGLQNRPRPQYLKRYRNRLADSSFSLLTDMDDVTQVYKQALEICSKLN

[4] = target: G protein-coupled receptor kinase 6 (Homo sapiens) (UniProt P43250); assay: Inhibition of human GRK6 using casein as substrate at 1 uM in presence of 32P-ATP by Hotspot assay relative to control; values are per cent of control
[5] = target: T2, Beta-adrenergic receptor kinase 1 (Homo sapiens) (UniProt P25098); assay: Inhibition of human GRK2 using casein as substrate at 1 uM in presence of 32P-ATP by Hotspot assay relative to control; values are per cent of control
T2 sequence (whole entry): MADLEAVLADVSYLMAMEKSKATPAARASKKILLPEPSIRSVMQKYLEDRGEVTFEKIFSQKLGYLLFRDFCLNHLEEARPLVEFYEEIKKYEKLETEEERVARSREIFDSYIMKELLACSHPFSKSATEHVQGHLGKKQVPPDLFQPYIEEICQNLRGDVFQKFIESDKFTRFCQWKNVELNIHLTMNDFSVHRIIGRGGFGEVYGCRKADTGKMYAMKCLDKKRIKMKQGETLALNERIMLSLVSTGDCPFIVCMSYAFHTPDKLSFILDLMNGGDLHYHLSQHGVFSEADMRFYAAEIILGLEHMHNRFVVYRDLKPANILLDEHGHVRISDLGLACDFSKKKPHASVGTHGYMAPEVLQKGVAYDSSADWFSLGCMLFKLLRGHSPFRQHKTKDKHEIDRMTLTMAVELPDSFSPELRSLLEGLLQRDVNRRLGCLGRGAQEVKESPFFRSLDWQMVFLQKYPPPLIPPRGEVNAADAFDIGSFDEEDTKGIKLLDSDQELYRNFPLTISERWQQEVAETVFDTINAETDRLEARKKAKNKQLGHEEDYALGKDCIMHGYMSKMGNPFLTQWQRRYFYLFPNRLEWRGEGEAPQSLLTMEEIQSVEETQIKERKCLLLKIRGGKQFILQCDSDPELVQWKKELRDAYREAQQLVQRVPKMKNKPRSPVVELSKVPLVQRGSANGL

[6] = target: Mitogen-activated protein kinase 8 (Homo sapiens) (UniProt P45983); assay: Inhibition of human JNK1 using ATF2 as substrate at 1 uM in presence of 32P-ATP by Hotspot assay relative to control; values are per cent of control
[7] = target: T3, Serine/threonine-protein kinase STK11 (Homo sapiens) (UniProt Q15831); assay: Inhibition of human LKB1 using LSNLYHQGKFLQTFCGSPLYRRR as substrate at 1 uM in presence of 32P-ATP by Hotspot assay relative to control; values are per cent of control
T3 sequence (whole entry): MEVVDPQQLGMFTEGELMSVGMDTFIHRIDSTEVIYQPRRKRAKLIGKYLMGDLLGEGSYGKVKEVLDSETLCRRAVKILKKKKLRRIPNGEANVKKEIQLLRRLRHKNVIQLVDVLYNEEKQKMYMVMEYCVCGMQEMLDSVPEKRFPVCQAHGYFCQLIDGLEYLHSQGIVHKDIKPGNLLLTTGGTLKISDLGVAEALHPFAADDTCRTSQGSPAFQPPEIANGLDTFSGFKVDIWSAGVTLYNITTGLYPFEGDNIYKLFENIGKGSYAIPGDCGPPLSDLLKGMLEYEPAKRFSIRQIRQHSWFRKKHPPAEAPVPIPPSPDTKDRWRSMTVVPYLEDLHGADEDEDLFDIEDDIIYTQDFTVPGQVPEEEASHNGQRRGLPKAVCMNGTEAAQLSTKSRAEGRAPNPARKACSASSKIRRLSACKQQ

[8] = target: Protein kinase C alpha type (Homo sapiens) (UniProt P17252); assay: Inhibition of human PKCa using ERMRPRKRQGSVRRRV as substrate at 1 uM in presence of 32P-ATP by Hotspot assay relative to control; values are per cent of control

Chain of G protein-coupled receptor kinase 6 (Homo sapiens) (P43250 whole entry, looked up): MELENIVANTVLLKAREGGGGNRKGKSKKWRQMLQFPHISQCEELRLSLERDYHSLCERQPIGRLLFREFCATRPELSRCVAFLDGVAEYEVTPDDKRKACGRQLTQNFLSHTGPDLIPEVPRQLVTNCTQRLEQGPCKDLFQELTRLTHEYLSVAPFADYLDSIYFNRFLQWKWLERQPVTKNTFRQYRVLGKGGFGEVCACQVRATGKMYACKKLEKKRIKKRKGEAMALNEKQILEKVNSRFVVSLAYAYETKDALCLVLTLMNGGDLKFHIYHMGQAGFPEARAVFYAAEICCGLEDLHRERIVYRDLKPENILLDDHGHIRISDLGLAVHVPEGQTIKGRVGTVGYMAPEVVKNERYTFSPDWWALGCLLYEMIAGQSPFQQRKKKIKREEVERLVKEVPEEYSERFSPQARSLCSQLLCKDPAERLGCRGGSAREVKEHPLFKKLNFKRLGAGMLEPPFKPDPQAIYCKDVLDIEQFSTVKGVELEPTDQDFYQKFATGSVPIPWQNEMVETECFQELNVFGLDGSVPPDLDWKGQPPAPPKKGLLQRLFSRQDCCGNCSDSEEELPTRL
Chain of Mitogen-activated protein kinase 8 (Homo sapiens) (P45983 whole entry): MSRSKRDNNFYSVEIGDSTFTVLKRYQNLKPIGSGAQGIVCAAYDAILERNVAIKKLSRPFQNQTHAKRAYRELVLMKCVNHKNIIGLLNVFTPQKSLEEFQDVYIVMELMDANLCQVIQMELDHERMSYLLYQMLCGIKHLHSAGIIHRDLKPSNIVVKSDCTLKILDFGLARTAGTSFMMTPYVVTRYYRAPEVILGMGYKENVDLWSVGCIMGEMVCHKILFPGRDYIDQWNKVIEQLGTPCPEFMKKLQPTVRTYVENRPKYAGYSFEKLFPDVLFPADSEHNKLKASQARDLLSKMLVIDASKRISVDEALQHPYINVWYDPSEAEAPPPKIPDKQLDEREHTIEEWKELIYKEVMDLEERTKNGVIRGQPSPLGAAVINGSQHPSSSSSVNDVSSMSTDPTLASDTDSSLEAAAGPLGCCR
Chain of Serine/threonine-protein kinase 33 (Homo sapiens) (Q9BYT3 whole entry, looked up): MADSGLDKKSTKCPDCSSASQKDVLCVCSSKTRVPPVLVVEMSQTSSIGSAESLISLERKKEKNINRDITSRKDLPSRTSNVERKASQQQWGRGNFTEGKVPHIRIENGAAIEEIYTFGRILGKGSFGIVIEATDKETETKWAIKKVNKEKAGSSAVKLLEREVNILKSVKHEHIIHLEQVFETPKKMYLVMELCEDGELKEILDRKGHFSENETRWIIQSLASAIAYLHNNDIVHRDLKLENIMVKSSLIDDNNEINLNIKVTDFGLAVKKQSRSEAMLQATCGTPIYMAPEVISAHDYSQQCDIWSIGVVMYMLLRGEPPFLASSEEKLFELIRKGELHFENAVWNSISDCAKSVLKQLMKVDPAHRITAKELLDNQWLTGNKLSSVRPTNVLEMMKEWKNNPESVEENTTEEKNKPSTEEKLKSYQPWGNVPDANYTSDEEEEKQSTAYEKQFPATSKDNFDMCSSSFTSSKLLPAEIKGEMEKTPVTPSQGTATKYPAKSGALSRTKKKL
Chain of Mitogen-activated protein kinase kinase kinase 20 (Homo sapiens) (Q9NYL2 2-800 limits assumed): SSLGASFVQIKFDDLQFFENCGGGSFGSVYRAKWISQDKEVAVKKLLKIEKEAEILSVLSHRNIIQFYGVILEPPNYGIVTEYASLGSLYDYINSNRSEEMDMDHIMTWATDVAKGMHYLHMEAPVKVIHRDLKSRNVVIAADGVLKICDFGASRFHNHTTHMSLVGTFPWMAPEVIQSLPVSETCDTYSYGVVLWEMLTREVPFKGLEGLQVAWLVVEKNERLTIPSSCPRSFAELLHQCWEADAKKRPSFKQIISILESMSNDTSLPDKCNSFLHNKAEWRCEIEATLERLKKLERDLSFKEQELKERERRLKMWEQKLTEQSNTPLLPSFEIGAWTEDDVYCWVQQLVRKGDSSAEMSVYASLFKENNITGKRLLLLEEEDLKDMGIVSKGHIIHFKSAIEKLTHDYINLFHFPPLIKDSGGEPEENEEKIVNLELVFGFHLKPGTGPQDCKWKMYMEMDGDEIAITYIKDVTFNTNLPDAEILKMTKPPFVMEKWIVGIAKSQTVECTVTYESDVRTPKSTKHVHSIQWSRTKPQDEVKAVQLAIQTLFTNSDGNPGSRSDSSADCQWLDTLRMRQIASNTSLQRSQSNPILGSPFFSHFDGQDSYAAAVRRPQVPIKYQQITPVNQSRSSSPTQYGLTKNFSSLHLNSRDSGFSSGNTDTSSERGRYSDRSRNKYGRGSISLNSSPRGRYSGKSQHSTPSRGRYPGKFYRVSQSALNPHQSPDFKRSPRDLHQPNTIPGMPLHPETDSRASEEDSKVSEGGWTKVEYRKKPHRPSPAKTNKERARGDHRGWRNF

Row | SMILES | residual activity [1] | residual activity [2] | residual activity [3] | residual activity [4] | residual activity [5] | residual activity [6] | residual activity [7] | residual activity [8]
1 | CC(C)S(=O)(=O)c1ccc2nccc(Nc3ccc4scnc4c3)c2c1 | 94.5% | 103% | 98.4% | 101% | 101% | 96.8% | 59% | 80.2%
2 | Cc1cc(-c2cnc(N)c3c(-c4ccc5scnc5c4)csc23)n(C)n1 | 21.2% | 99% | 98.5% | 91.9% | 101% | 91.6% | 96.8% | 80.8%
3 | CNC(=O)c1ccc2c(c1)ncn2-c1ccc(CC(=O)OC(C)(C)C)cc1 | 41.7% | 102% | 91.7% | 96.4% | 97.7% | 103% | 99% | 107%

Reference: ChEMBL document CHEMBL5649166, “RIP3 induces apoptosis independent of pronecrotic kinase activity” (Mol Cell, 2014)
